Here are results for two compounds from patent US20250144187A1, “COMBINATION OF HYDROLASES AND ANTI-MICROORGANISM DRUGS AND USES THEREOF” (CENTRE FOR EYE AND VISION RESEARCH LIMITED, priority 2023, published 2025).

Test [1] relates to MRSA. As to the kind of experiment: Time-killing curves, cefdinir/lysozyme. It is filed as cell-based, Staphylococcus aureus. Conditions: 0.5 mg/ml lysozyme + 0.5 μg/ml cefdinir, after 16 hours; reduced from the level of 10^10. The method, then:
3) Time-killing curves. According to standard method [Thappeta K R V et al., ACS Infect Dis 6, 1228-1237 (2020)], over-night cultured MRSA was diluted and aliquoted into new sterile 50 ml tubes at 1:1000 ratio. Then, the bacterial suspension was cultured in LB medium containing 0.5 or 2.0 μg/ml cefdinir, 0.5 mg/ml lysozyme or their combination at 37° C. with shaking at 250 rpm. Bacterial suspension without any drugs served as control group. To measure their kinetic time-killing curves, twenty micro liters of each culture was extracted at time intervals of 0, 2, 4, 6, 9 and 16 h for measurement of the OD600 and colony-forming units. Ten micro liters of each dilution was spotted on the LB-agar plates and incubated at 37° C. for 24 hours prior to enumeration. All assays were performed in triplicate.

In the next test the test system is MRSA and MRSE biofilm. As to the kind of experiment: Biofilm crystal violet assay, tedizolid phosphate/lysozyme. It is filed as cell-based. Conditions: tedizolid phosphate + 0.5 mg/ml lysozyme. The method, then: 4) Biofilm assays. According to previously described method [Thappeta, K. R. et al., ACS Infect. Dis. 6, 1228-1237(2020); Merritt, J. H. et al., Curr. Protoc. Microbiol. Chapter 1, Unit 1B.1 (2005); O'Toole, G. A. et al., J, Vis. Exp. 47, 2437 (2011)], biofilm was assessed by using an adherence assay on 96-well tissue culture plates. Briefly, tedizolid phosphate at final concentration of 0.3 μg/ml was added into bacterial suspensions (1×10^6 CFU/ml, in LB medium) in the absence or presence of 0.5 mg/ml lysozyme. LB medium with or without bacteria served as positive or negative control group, respectively. After overnight incubation at 37° C., the bacterial suspension was removed, and well was gently washed twice with sterile PBS to remove exclusively non-adherent bacteria. The adherent biofilm was fixed by using 95% methanol at 60° C. for 15 minutes. Then, biofilm was stained with 1% Crystal violet (100 μl/well) at 37° C. for 15 minutes, Ater that, all wells were gently washed with PBS to remove redundant crystal violet. Finally, the dye was solubilized with […] of 95% ethanol per well at 37° C. for 3 minutes. The optical density at 590 nm of solution in each well was measured using a micro-plate reader. Herein, strong biofilm, weak biofilm and no biofilm were defined as “[…]”, “ODnegative control<ODsample<2ODnegative control” and “ODsample≤ODnegative control”. […]

The test system of test [2] is MRSA. As to the kind of experiment: ATP, NAD+/NADH and pyruvate levels, tedizolid phosphate/lysozyme. It is filed as cell-based, Staphylococcus aureus. Conditions: combination therapy for 1 hour. The procedure: 13) ATP, NAD^+/NADH and pyruvate levels. According to the described method [Liu. Y et al., Adv. Sci. 7, 1902227(2020)], mid-log-phase MRSA with the OD600 of 0.4 to 0.6 was treated with lysozyme, tedizolid phosphate or their combination at different concentrations. Those without any treatment served as control group. After 1 hour incubation at 37° C. all bacteria we collected and then washed by cold PBS for 3 times. […] Then, 75 μl of each supernatant was incubated 25 μl of reaction I, followed by continuous incubation with 125 μl of reaction II. By recording the absorbance at 520 mu, the pyruvate level in each sample was figured out according to the standard formula. The intensity in control group was defined as 100% and others were normalized.
Then, 20 si of each supernatant was added white 96-well plate pre-reactivated by 100 μl of ATP test solution (Beyotime Biotechnology, China), followed by luminometer measurement [Liu, Y et al., Adv. Sci 7, 1902227 (2020)]. To analyze the intracellular NAD^+ and NADH levels [Xue, C et al., Front. Pharmacol. 12, 600296 (2021)], each lysis supernatant was divided into two tubes. One tube was heated at 60° C. for 30 minutes in PCR machine to decompose NAD^+ if had. Then, this tube was further centrifuged at 18,000 g at 4° C. for 20 minutes to collect the supernatant. After that, 20 μl of supernatant from heated or unheated group was added white 96-well plate pre-reactivated by 90 μl/well of alcohol dehydrogenase solution (Beyotime Biotechnology, China) for 10 minutes incubation at 37° C. in the prevention of light, Next, 10 μl of staining solution (Beyotime Biotechnology, China) was added to react with product in previous reaction. After 30 minutes at 37° C. in the prevention of light, orange formazan was observed and then the absorbance at 450 nm was recorded. Intensities of those […] heat treatment indicated the levels of NADH+NAD^+ and NADH itself, respectively. Finally, according to the standard formula, the intracellular levels of NAD^+, NADH and their ratio were figured out. All results were expressed as average±SD. […]

Test [3] has as its system MRSA. In words: Check board broth micro-dilution assay, tedizolid phosphate with lysozyme. It is filed as cell-based, Staphylococcus aureus. Conditions: for FICI: tedizolid phosphate + lysozyme. The method, then: 2) Check board broth micro-dilution assays. According to standard two-fold dilution method [Sun. H et al., Nat. Commun. 11, 5263 (2020) tedizolid phosphate at different concentrations were added into fresh LB medium (or trypticase soy troth medium with 5% defibrinated horse blood) containing different concentrations of human lysozyme in 96-well plate. Then, 20 μl of 1.0×10^7 CFU/ml logarithmic cultures of MRSA or MRSE were added into each well of the plate and co-incubated overnight. Drug-free LB medium in the absence or presence of bacteria served as background control and growth control group, respectively. […] Thus, there would be a series of FICI values. In most of cases, the lowest one among these values was listed to reflect the best achieving degree of combination therapy. In terms of the lowest FICI, FICI≤0.5, 0.5<FICI<1 or FICI≥1, would indicate the combination has synergy, part synergy or non-synergy effects, respectively.
A general note: Dilution methods test growth across graded concentrations, often in twofold steps.

The structures appear in SMILES notation.

On to `C=CC1=C(C(=O)O)N2C(=O)[C@@H](NC(=O)/C(=N\O)c3csc(N)n3)[C@H]2SC1` [cefdinir, Cefdinir], for which the bacterial load in the test on MRSA [1] was 10^7 CFU/ml.

Consider `Cn1nnc(-c2ccc(-c3ccc(N4C[C@H](COP(=O)(O)O)OC4=O)cc3F)cn2)n1` [tedizolid phosphate, Tedizolid Phosphate], for which the “biofilm formation (absorbance at 590 nm), pre-biofilm stage” value in the test with MRSA and MRSE biofilm was “biofilm was eliminated”. Besides, the “decrease in the level of pyruvate” value in the test on MRSA [2] is given as greater than 40%. For the same compound, the “level of ATP” value with MRSA [2] is “higher levels of ATP”. The “ratio of NAD+/NADH” value in the test with MRSA [2] (increased from 8.84±1.89) is 18.43±4.42. Also, the figures for the FICI in the test with MRSA [3] (absence of urea-cycle inhibitors), in the test with MRSA [3] (cultures of both inhibitors) and with MRSA [3] (presence of BB-Cl-Amidine or acetohydroxamic acid) were 0.015, “up to 0.25” and 0.1, respectively. Further, the “fractional inhibitory concentration index (FICI)” value with MRSA [3] (tedizolid phosphate and lysozyme) was less than 0.023.
